Reference: article PMC10609148 (Molecules, 2023)
“Also recorded” adds a separate entry of the source.

What was measured:
[1] = target: Aβ(1–42)/calbindin-D28k complex (Homo sapiens, UniProt P05067); experiment: Antagonism of Aβ(1–42) HiLyte-Fluor555/calbindin-D28k interaction (fluorescence); format: biochemical, human recombinant calbindin-D28k
Method: The purified protein were aliquoted and conserved in 30% glycerol at −80 °C until use.

[2] = target: T1, Aβ(1–42)/CaM complex (Homo sapiens, UniProt P05067); experiment: Antagonism of Aβ(1–42) HiLyte-Fluor555/CaM interaction (fluorescence); format: biochemical, Bovine brain CaM
T1 construct: purchased Merck-Sigma-Aldrich (CaM); AnaSpec (labelled Aβ peptide); host or cells: bovine brain
Method: Human Aβ(1–42)-HiLyte^TM-Fluor555 was purchased from AnaSpec (Freemont, CA, USA). […] His6 was purchased from Quimigen (Madrid, Spain). Bovine brain CaM and Thrombin Clean Cleavage^TM kit were purchased from Merck-Sigma-Aldrich (Madrid, Spain).
Fluorescence measurements were performed using a Fluoromax+ fluorescence Spectrophotometer (Horiba Jobin Yvon IBH Ltd., Glasgow, UK) in quartz cuvettes of 1cm light pathlength with a total volume of 2.5 mL at room temperature (24–25 °C), with excitation and emission slits of 5 nm.
The measurements of the kinetics of fluorescence have been performed in buffer 50 mM N-[2-hydroxyethyl] piperazine-N′-[2-ethanesulfonic acid], 100 mM KCl and 50 µM CaCl2 (pH 7.05).
CaM and calbindin-D28k were added from concentrated stock solutions freshly prepared in the assay buffer used in the fluorescence measurements, such that the total added volume was always lower than 10 μL.

[3] = test system: human recombinant Cb5R with a His6-tag; experiment: FRET between FAD of His6-tagged Cb5R and Aβ(1–42) HiLyte-Fluor555; format: binding; conditions: calculated for saturation by Aβ(1–42) HiLyte-Fluor555
Method: (§1) The assay buffer was 20 mM phosphate/0.1 mM diethylenetriaminepentaacetic acid (pH 7).

[4] = test system: human recombinant Cb5R with a His6-tag; experiment: Inhibition of NADH-dependent Cb5 reductase activity of His6-tagged Cb5R; format: biochemical; conditions: pH 7, 5 μM Cb5, 0.25 mM NADH
Method: The reaction was started by the addition of 0.25 mM NADH after 10 min preincubation of the Cb5R in the assay medium, and initial rates were measured during periods of time ranging between 5 and 10 min, with a less than 10% drop in the Cb5 concentration in the assay cuvette. The Cb5 reductase activity was calculated from the change of absorbance at 550 nm using a differential extinction coefficient between reduced and oxidized Cb5 of 16.5 mM^−1·cm^−1, as in previous works [67, 69].

[5] = test system: human recombinant Cb5R with a His6-tag; experiment: Titration of FAD fluorescence of His6-tagged Cb5R; format: binding
Method: as §1

[6] = 177 μM in phosphate-buffered saline; Tricine-SDS-PAGE; cited from earlier work
[7] = cited from earlier work
Excerpt: Aβ peptides bind to ganglioside-clustered raft-like membrane microdomains, which foster the formation of Aβ oligomers and fibrils in a cholesterol-dependent manner. […] Moreover, plasma membrane lipid rafts play an active role in extracellular Aβ uptake and internalization in neurons. After the uptake of extracellular Aβ(1–42) into neurons, the intracellular ...

T1 sequence (P05067 672-713 limits assumed, one chain of several): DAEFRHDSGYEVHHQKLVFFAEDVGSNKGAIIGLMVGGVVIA
Chain of Aβ(1–42)/calbindin-D28k complex (P05067 672-713 limits assumed, one chain of several): as above

N[C@@H](Cc1c[nH]cn1)C(=O)N[C@@H](Cc1c[nH]cn1)C(=O)N[C@@H](Cc1c[nH]cn1)C(=O)N[C@@H](Cc1c[nH]cn1)C(=O)N[C@@H](Cc1c[nH]cn1)C(=O)N[C@@H](Cc1c[nH]cn1)C(=O)O [His6, hexa-histidine]
IC50 [1]: ≤ 1 µM
IC50 [2]: ≤ 1 µM

Aβ(1–42) HiLyte^TM-Fluor555: Human Aβ(1–42) with HiLyte-Fluor555 dye covalently bound to ASP1; AnaSpec
quenching of donor FAD fluorescence at saturation [3]: 70 ± 7%

Aβ(1–42): prevalent Aβ peptide found in the amyloid plaques of AD patients; supplied by StabVida and GenicBio
inhibition of Cb5 reductase activity (in words) [4]: potent inhibition of this activity by nanomolar Aβ(1–42) concentrations
fitted maximum of FAD fluorescence increase (ΔF/F0) ([5]; Figure 5 fit, 1:1 binding, triplicate): 0.5227
effect of Cb5 on the titration of FAD fluorescence ([5]; absence vs presence of 5 μM Cb5): the same in the absence and presence of 5 μM of Cb5; also recorded: not a significant difference
fraction of monomers and higher molecular species [6]: almost undetectable
critical concentration that induces fibrillization [7]: submicromolar range
